Converted amounts (≈) assume the structure as drawn. Like-named read-outs stand apart in the source and are kept apart here.
Assays:
[1] = Determination of the solubility in organic solvents; format: physicochemical; details: for solubility: organic solvent or mixture, thermodynamic from solid; for solubility / Solubility (g/ml) Xylene / Solubility (g/ml) DMF / Solubility (g/ml) THF / Solubility (g/ml) Chloroform / Solubility (g/ml) Dichloromethane: 5 ml, added until saturation; for Solubility (g/ml) Xylene: solvent xylene
Experimental: (Determination of the Solubility)
Respectively, 5 ml of the solvents of THF, DMF, xylene, chloroform and dichloromethane were measured and poured into 20 ml of tubular bottoms with screw caps. […] The solubility (g/ml) to the respective solvent was determined from the weight of the triarylamine dimer derivative added until saturation.

[2] = Differential scanning calorimetry (DSC), glass transition point; format: physicochemical; details: determined by DSC
From the text: (Differential Scanning Calorimetry (DSC))
The results of the glass transition point (Tg) determined by DSC of the triarylamine dimer derivatives obtained in Examples 1 to 6 are shown in Table 3.

[3] = chloroform, solvent chloroform, read-out: Solubility (g/ml) Chloroform
[4] = dichloromethane, solvent dichloromethane, read-out: Solubility (g/ml) Dichloromethane

Compound | solubility ([1]; DMF, solvent DMF, read-out: Solubility (g/ml) DMF) [g/mL] | solubility ([1]; THF, solvent THF, read-out: Solubility (g/ml) THF) [g/mL] | solubility [1, 3] [g/mL] | solubility [1, 4] [g/mL] | Solubility (g/ml) Xylene [1] [g/mL] | Solubility (g/ml) DMF ([1]; solvent DMF) [g/mL] | Solubility (g/ml) THF ([1]; solvent THF) [g/mL] | Solubility (g/ml) Chloroform ([1]; solvent chloroform) [g/mL] | Solubility (g/ml) Dichloromethane ([1]; solvent dichloromethane) [g/mL] | Glass Transition Point(Tg) [2] [Degrees C.] | Solubility in organic solvent (in words) [1] | Solubility compared with alpha-NPD (times higher) ([1]; organic solvents of Table 2)
Cc1ccc(N(c2ccccc2)c2ccc(-c3ccc(N(c4ccccc4)c4ccc(C)cc4)cc3)cc2)cc1 [Comparative Example2, N,N′-diphenyl-N,N′-bis(4-tolyl)-4,4′-diaminobiphenyl] | 0.036 (≈ 69.7 mM) | 0.413 (≈ 799 mM) | 0.613 (≈ 1190 mM) | 0.397 (≈ 768 mM) | 0.152 (≈ 294 mM) | – | – | – | – | – | – | –
c1ccc(N(c2ccc(-c3ccc(N(c4ccccc4)c4cccc5ccccc45)cc3)cc2)c2cccc3ccccc23)cc1 [Comparative Example4, N,N′-diphenyl-N,N′-bis(1-naphthyl)-4,4′-diaminobiphenyl] | – | – | – | – | 0.002 (≈ 3.4 mM) | 0.001 (≈ 1.7 mM) | 0.009 (≈ 15.3 mM) | 0.024 (≈ 40.8 mM) | 0.021 (≈ 35.7 mM) | – | – | –
c1ccc(N(c2ccc(-c3ccc(N(c4ccccc4)c4ccc5ccccc5c4)cc3)cc2)c2ccc3ccccc3c2)cc1 [Comparative Example5, N,N′-diphenyl-N,N′-bis(2-naphthyl)-4,4′-diaminobiphenyl] | – | – | – | – | 0.103 (≈ 175 mM) | 0.012 (≈ 20.4 mM) | 0.235 (≈ 399 mM) | 0.395 (≈ 671 mM) | 0.195 (≈ 331 mM) | – | – | –
c1ccc(N(c2ccc(-c3ccc(N(c4ccccc4)c4ccc5ccccc5c4)cc3)cc2)c2ccc3ccccc3c2)cc1 [Comparative Example6, N,N′-diphenyl-N,N′-bis(2-naphthyl)-4,4′-diaminobiphenyl] | – | – | – | – | 0.162 (≈ 275 mM) | 0.033 (≈ 56.1 mM) | 0.270 (≈ 459 mM) | 0.452 (≈ 768 mM) | 0.226 (≈ 384 mM) | – | – | –
c1ccc(N(c2ccc(-c3ccc(N(c4ccccc4)c4ccc5ccccc5c4)cc3)cc2)c2ccc3ccccc3c2)cc1 [Comparative Example7, N,N′-diphenyl-N,N′-bis(2-naphthyl)-4,4′-diaminobiphenyl] | – | – | – | – | 0.155 (≈ 263 mM) | 0.028 (≈ 47.6 mM) | 0.202 (≈ 343 mM) | 0.368 (≈ 625 mM) | 0.209 (≈ 355 mM) | – | – | –
Cc1cccc(N(c2ccccc2)c2ccc(-c3ccc(N(c4ccccc4)c4cccc(C)c4)cc3)cc2)c1 [Example1, N,N′-diphenyl-N,N′-bis(3-tolyl)-4,4′-diaminobiphenyl] | – | – | – | – | – | – | – | – | – | 63.2 | – | –
Cc1ccc(N(c2ccccc2)c2ccc(-c3ccc(N(c4ccccc4)c4ccc(C)cc4)cc3)cc2)cc1 [Example2, N,N′-diphenyl-N,N′-bis(4-tolyl)-4,4′-diaminobiphenyl] | – | – | – | – | 0.334 (≈ 646 mM) | 0.060 (≈ 116 mM) | 0.732 (≈ 1420 mM) | 0.892 (≈ 1730 mM) | 0.696 (≈ 1350 mM) | 75.0 | – | –
c1ccc(N(c2ccc(-c3ccc(N(c4ccccc4)c4cccc5ccccc45)cc3)cc2)c2cccc3ccccc23)cc1 [Example4, N,N′-diphenyl-N,N′-bis(1-naphthyl)-4,4′-diaminobiphenyl] | – | – | 0.043 (≈ 73 mM) | 0.029 (≈ 49.3 mM) | 0.009 (≈ 15.3 mM) | 0.007 (≈ 11.9 mM) | 0.028 (≈ 47.6 mM) | – | – | 98.8 | – | –
c1ccc(N(c2ccc(-c3ccc(N(c4ccccc4)c4ccc5ccccc5c4)cc3)cc2)c2ccc3ccccc3c2)cc1 [Example5, N,N′-diphenyl-N,N′-bis(2-naphthyl)-4,4′-diaminobiphenyl] | – | – | 0.632 (≈ 1070 mM) | – | 0.558 (≈ 948 mM) | 0.301 (≈ 511 mM) | > 0.795 | – | 0.471 (≈ 800 mM) | 99.4 | very high solubility | ten to several hundreds times higher
c1ccc(N(c2ccc(-c3ccc(N(c4ccccc4)c4ccc5ccccc5c4)cc3)cc2)c2ccc3ccccc3c2)cc1 [Example6, N,N′-diphenyl-N,N′-bis(2-naphthyl)-4,4′-diaminobiphenyl] | – | – | – | – | – | – | > 0.795 | – | – | 99.4 | – | –

From patent publication US7598010B2, “Triarylamine dimer derivative having amorphous phase” (Orient Chemical Industries, Ltd., priority 2003, dated 2009)
